Data taken from US10189786B2, “Antibacterial compounds” (Duke University, priority 2013, dated 2019).
In brackets after ≈: the same amount, converted by molar mass.

Experiments:
E. coli W3110 = experiment: microbe, parasite or virus in culture; format: cell-based; conditions: wild-type E. coli W3110, 22 hours at 37° C., MTT; for MIC: Escherichia coli, W3110, 22 h
P. aeruginosa PAO1 = experiment: MIC assay, P. aeruginosa PAO1; format: cell-based; conditions: for MIC P. aeruginosa PAO1: unit from b306; for MIC: Pseudomonas aeruginosa
E. coli W3110PA = experiment: microbe, parasite or virus in culture; format: cell-based; conditions: E. coli with native lpxC replaced by that of P. aeruginosa; for MIC E. coli W3110PA: unit from b306; for MIC: Escherichia coli, W3110PA
[1] = test system: N. gonorrhoeae FA19 (a drug-sensitive strain); experiment: Disk diffusion assay, N. gonorrhoeae FA19; format: cell-based; conditions: disc 6 mm; for zone of inhibition at 2 µg/disc / zone of inhibition at 20 µg/disc / zone of inhibition at 0.2 µg/disc: Neisseria gonorrhoeae, read-out: diameter of the growth inhibition, FA19
Protocol: (§1) An assay was performed on two strains of Acinetobacter Baumannii: antibiotic susceptible strain (Sus. A.b. Isolate), and multidrug-resistant strains (MDR A.b. Isolate). […] Activity is measured as the diameter (in mm) of the growth inhibition.

[2] = test system: N. gonorrhoeae 35/02 (drug-resistant strain); experiment: Disk diffusion assay, N. gonorrhoeae 35/02; format: cell-based; conditions: disc 6 mm; for zone of inhibition at 0.2 µg/disc / zone of inhibition at 2 µg/disc / zone of inhibition at 20 µg/disc: Neisseria gonorrhoeae, read-out: diameter of the growth inhibition, 35/02; for zone of inhibition at 0.2 µg/disc: 0.2 μg per disc
Protocol: as §1

[3] = test system: N. gonorrhoeae F89 (high-level cefixime and ceftriaxone resistance); experiment: Disk diffusion assay, N. gonorrhoeae F89; format: cell-based; conditions: disc 6 mm; for zone of inhibition at 0.2 µg/disc / zone of inhibition at 2 µg/disc / zone of inhibition at 20 µg/disc: Neisseria gonorrhoeae, read-out: diameter of the growth inhibition, F89
Protocol: as §1

N. gonorrhoeae H041 = experiment: Disk diffusion assay, N. gonorrhoeae H041; format: cell-based; conditions: disc 6 mm; for zone of inhibition at 0.2 µg/disc / zone of inhibition at 2 µg/disc / zone of inhibition at 20 µg/disc: Neisseria gonorrhoeae, read-out: diameter of the growth inhibition, H041; for zone of inhibition at 0.2 µg/disc: H041, 0.2 μg per disc; for zone of inhibition at 2 µg/disc: H041, 2.0 μg per disc; for zone of inhibition at 20 µg/disc: H041, 20 μg per disc
Protocol: as §1

E. coli W3110NG = experiment: MIC assay, E. coli W3110NG; format: cell-based; conditions: Escherichia coli
[4] = test system: F. novicida U112 (FNU112); experiment: microbe, parasite or virus in culture; format: cell-based; conditions: Francisella tularensis, read-out: MIC FNU112
N. gonorrhoeae (FA35/02) [5] = experiment: MIC assay, N. gonorrhoeae 35/02; format: cell-based; conditions: drug-resistant strain; for MIC: Neisseria gonorrhoeae
Protocol: MICs are determined according to the NCCLS protocol using 96-well plates. Briefly, diluted bacterial cells (10^6 cells/mL) are added into each well of the 96-well plates containing LB medium with 5% DMSO and various concentrations of the compound of disclosure. After incubation of the plates for 22 hours at 37° C., [4,5-dimethylthiazol-2-yl]-2,5-diphenyltetrazolium bromide solution (MTT) is added (final concentration, 0.2 mg/mL) and incubated at 37° C. for another 3 hrs. MIC is determined as the lowest concentration of an antibiotic that prevented color change (yellow to purple).
The antibiotic activities of several exemplary compounds useful in the methods of the disclosure are evaluated by measurements of minimum inhibitory concentrations (MICs) using two N. gonorrhoeae strains: FA19 (a drug-sensitive strain) and 35/02 (drug-resistant strain.) FA19 is an isolate from uncomplicated infection and was lyophilized in 1962. […] The strain is being sequenced to elucidate the mechanisms involved in high-level chromosomally mediated resistance.

N. gonorrhoeae (FA35/02) [6] = conditions: description of the resistance of strain 35/02; cited from earlier work
[7] = 0.2 μg per disc, listed as 3 (Isomer B)

| Compound | MIC (E. coli W3110) [µg/mL] | zone of inhibition at 2 µg/disc ([1]; 2.0 μg per disc) [mm] | zone of inhibition at 20 µg/disc ([1]; 20 μg per disc) [mm] | zone of inhibition at 0.2 µg/disc [2] [mm] | zone of inhibition at 2 µg/disc ([2]; 2.0 μg per disc) [mm] | zone of inhibition at 20 µg/disc ([2]; 20 μg per disc) [mm] | zone of inhibition at 0.2 µg/disc ([3]; 0.2 μg per disc) [mm] | zone of inhibition at 2 µg/disc ([3]; 2.0 μg per disc) [mm] | zone of inhibition at 20 µg/disc ([3]; 20 μg per disc) [mm] | zone of inhibition at 0.2 µg/disc (N. gonorrhoeae H041) [mm] | zone of inhibition at 2 µg/disc (N. gonorrhoeae H041) [mm] | zone of inhibition at 20 µg/disc (N. gonorrhoeae H041) [mm] | MIC (P. aeruginosa PAO1; PAO1, P. aeruginosa PAO1) [µg/mL] | MIC (E. coli W3110PA) [µg/mL] | zone of inhibition at 0.2 µg/disc ([1]; 0.2 μg per disc) [mm] | also measured |
| --- | --- | --- | --- | --- | --- | --- | --- | --- | --- | --- | --- | --- | --- | --- | --- | --- |
| CC(CCc1ccc(-c2ccccc2)cc1)(C(=O)NO)C(C)(O)C(F)F (single isomer, unassigned) [Example 3 Isomer A, 2-(2-(biphenyl-4-yl)ethyl)-4,4-difluoro-N,3-dihydroxy-2,3-dimethylbutanamide] | 50 (≈ 138 µM) | 20 | 30 | 0 | 13 | 19 | 18 | 27 | 33 | 9 | 16 | 24 | – | – | – | MIC P. aeruginosa PAO1 (P. aeruginosa PAO1; P. aeruginosa PAO1, listed as 3 Isomer A): 6.3 µg/mL (≈ 17.3 µM); MIC E. coli W3110PA (E. coli W3110PA; listed as 3 Isomer A): 3.1 µg/mL (≈ 8.53 µM); diameter of the growth inhibition, FA19 ([1]; 0.2 μg per disc, listed as 3 (Isomer A)): 11 mm |
| CC(CCc1ccc(-c2ccccc2)cc1)(C(=O)NO)C(C)(O)C(F)F (single isomer, unassigned) [Example 3 Isomer B, 2-(2-(biphenyl-4-yl)ethyl)-4,4-difluoro-N,3-dihydroxy-2,3-dimethylbutanamide] | – | – | – | – | – | – | – | – | – | – | – | – | – | – | – | MIC E. coli W3110 (E. coli W3110): >50 µg/mL; MIC P. aeruginosa PAO1 (P. aeruginosa PAO1; P. aeruginosa PAO1, listed as 3 Isomer B): 25 µg/mL (≈ 68.8 µM); MIC E. coli W3110PA (E. coli W3110PA; listed as 3 Isomer B): 25 µg/mL (≈ 68.8 µM); diameter of the growth inhibition, FA19 [1, 7]: 0 mm; diameter of the growth inhibition, FA19 ([1]; 2.0 μg per disc): 15 mm; diameter of the growth inhibition, FA19 ([1]; 20 μg per disc): 23 mm; diameter of the growth inhibition, 35/02 ([2]; 2.0 μg per disc): 8 mm; diameter of the growth inhibition, 35/02 ([2]; 20 μg per disc): 19 mm; diameter of the growth inhibition, F89 [3, 7]: 10 mm; diameter of the growth inhibition, F89 ([3]; 2.0 μg per disc): 20 mm; diameter of the growth inhibition, F89 ([3]; 20 μg per disc): 27 mm; diameter of the growth inhibition, H041 (N. gonorrhoeae H041; [7]): 8 mm; diameter of the growth inhibition, H041 (N. gonorrhoeae H041; 2.0 μg per disc): 10 mm; diameter of the growth inhibition, H041 (N. gonorrhoeae H041; 20 μg per disc): 20 mm |
| CC(C)(O)C(C)(CCc1ccc(-c2ccccc2)cc1)C(=O)NO (stereo not drawn) [Example 2, 2-(2-(biphenyl-4-yl)ethyl)-N,3-dihydroxy-2,3-dimethylbutanamide] | > 50 | – | – | – | – | – | – | – | – | – | – | – | 25 (≈ 76.4 µM) | 25 (≈ 76.4 µM) | – | – |
| CC(CCn1ccc(-c2ccc(-n3nccn3)cc2)cc1=O)(C(=O)NO)C(C)(O)C(F)F (stereo not drawn) [Example 4, 2-(2-(4-(4-(2H-1,2,3-triazol-2-yl)phenyl)-2-oxopyridin-1 (2H)-yl)ethyl)-4,4-difluoro-N,3-dihydroxy-2,3-dimethylbutanamide] | 3.12 (≈ 6.97 µM) | 8 | 19 | 0 | 11 | 16 | 7 | 15 | 26 | 7 | 10 | 16 | – | 3.13 (≈ 7 µM) | 0 | – |
| C[C@@](O)(C(F)F)[C@H](NCc1ccc(-c2ccccc2)cc1)C(=O)NO [Example 5, (2S,3S)-2-(biphenyl-4-ylmethylamino)-4,4-difluoro-N,3-dihydroxy-3-methylbutanamide] | 25 (≈ 71.4 µM) | 25 | 29 | 0 | 16 | 24 | 8 | 27 | 36 | 7 | 17 | 25 | 3.1 (≈ 8.85 µM) | 3.1 (≈ 8.85 µM) | 0 | – |
| CC(NCc1ccc(-c2ccccc2)cc1)(C(=O)NO)C(C)(O)C(F)F (stereo not drawn) [Example 6, 2-(biphenyl-4-ylmethylamino)-4,4-difluoro-N,3-dihydroxy-2,3-dimethylbutanamide] | > 50 | 22 | – | – | – | – | – | – | – | – | – | – | – | 12.5 (≈ 34.3 µM) | – | MIC (P. aeruginosa PAO1; P. aeruginosa PAO1): 12.5 µg/mL (≈ 34.3 µM) |
| C[C@@H](O)[C@H](NCc1ccc(-c2ccccc2)cc1)C(=O)NO [Example 9, (2S,3R)-2-(biphenyl-4-ylmethylamino)-N,3-dihydroxybutanamide] | 25 (≈ 83.2 µM) | – | – | – | – | – | – | – | – | – | – | – | 5.4 (≈ 18 µM) | 4.8 (≈ 16 µM) | – | MIC (E. coli W3110NG): > 50 µg/mL; MIC [4]: > 5 µg/mL |
| CC(NCCCc1ccc(-c2ccccc2)cc1)(C(=O)NO)C(C)(O)C(F)F (stereo not drawn) [Example 10, 2-(3-(biphenyl-4-yl)propylamino)-4,4-difluoro-N,3-dihydroxy-2,3-dimethylbutanamide] | 61.2 (≈ 156 µM) | 25 to 27 | 30 | 15 | 20 | 27 | 20 | 28 | 35 | 13 | 20 | 27 | 2.5 (≈ 6.37 µM) | – | 17 | MIC (N. gonorrhoeae (FA35/02) [5]): 0.06 µg/mL (≈ 0.153 µM) |
| C[C@@](O)(C(F)F)[C@H](NCCCc1ccc(-c2ccccc2)cc1)C(=O)NO [Example 11, (2S,3S)-2-(3-(biphenyl-4-yl)propylamino)-4,4-difluoro-N,3-dihydroxy-3-methylbutanamide] | 1.25 (≈ 3.3 µM) | 25 | 30 | 14 | 23 | 26 | 19 | 26 | 33 | 11 | 20 | 27 | 2.5 (≈ 6.61 µM) | 1.25 (≈ 3.3 µM) | 18 | MIC (N. gonorrhoeae (FA35/02) [5]): 0.03 to 0.06 µg/mL (≈ 0.0793 to 0.159 µM); MIC N. gonorrhoeae (FA35/02) (N. gonorrhoeae (FA35/02) [5]): 0.03 µg/mL (≈ 0.0793 µM) |
| COc1ccc(-c2ccn(CCC(C)(C(=O)NO)S(C)(=O)=O)c(=O)c2)cc1 (stereo not drawn) [Example 13, N-hydroxy-4-(4-(4-methoxyphenyl)-2-oxopyridin-1 (2H)-yl)-2-methyl-2-(methylsulfonyl)butanamide] | < 0.78 | – | – | – | – | – | – | – | – | – | – | – | < 0.78 | < 0.78 | – | MIC (E. coli W3110NG): 1.25 µg/mL (≈ 3.17 µM); MIC [4]: 1.25 µg/mL (≈ 3.17 µM) |
| C[C@@](O)(C(F)F)[C@H](NC(=O)CCc1ccc(-c2ccccc2)cc1)C(=O)NO [Example 14, (2S,3S)-2-(3-(biphenyl-4-yl)propanamido)-4,4-difluoro-N,3-dihydroxy-3-methylbutanamide] | 6.25 (≈ 15.9 µM) | 27 | 30 | 14 | 22 | 28 | 18 | 27 | 34 | 7 | 20 | 26 | – | 12.5 (≈ 31.9 µM) | 18 | MIC [4]: 12.5 µg/mL (≈ 31.9 µM); MIC (N. gonorrhoeae (FA35/02) [5]): 0.25 µg/mL (≈ 0.637 µM) |
| CC(CCc1ccc(-c2ccccc2)cc1)(C(=O)NO)S(C)(=O)=O (stereo not drawn) [Example 133] | 3.13 (≈ 9.01 µM) | – | – | – | – | – | – | – | – | – | – | – | 0.39 (≈ 1.12 µM) | 0.38 (≈ 1.09 µM) | – | MIC [4]: 3.13 µg/mL (≈ 9.01 µM) |
| CO/N=C(\C(=O)N[C@@H]1C(=O)N2C(C(=O)O)=C(CSc3nc(=O)c(=O)[nH]n3C)CS[C@H]12)c1csc(N)n1 [ceftriaxone] | – | – | – | – | – | – | – | – | – | – | – | – | – | – | – | MIC of reference antibiotics against N. gonorrhoeae 35/02 (N. gonorrhoeae (FA35/02) [6]): 0.12 µg/mL |
| penicillin | – | – | – | – | – | – | – | – | – | – | – | – | – | – | – | MIC of reference antibiotics against N. gonorrhoeae 35/02 (N. gonorrhoeae (FA35/02) [6]): 6 µg/mL |
